What was measured:
eotaxin-3 release = test: Human whole blood eotaxin-3 assay (IL-4 stimulated); format: cell-based; conditions: human whole blood, IL-4 0.4 nM, 48 hours; geometric mean; given for compounds with >80% Emax; read-out: Eotaxin-3 EC50
How it was run: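 Human whole blood was preincubated with compound for 120 min at 37 °C, then stimulated with recombinant human IL-4 (E. coli) at 0.4 nM final for 48 h. Inhibition of eotaxin-3 release gave EC50 values.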

STAT6 = STAT6 (Homo sapiens (Human), UniProt P42226); test: STAT6 degrader assay (HiBiT, HeLa LgBiT clone 4.14); format: cell-based; conditions: HeLa LgBiT clone 4.14, 4-24 h; for DC50: geometric mean, given for compounds with >80% Emax, read-out: STAT6 degradation DC50
How it was run: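 DC50 (nM) comes from luminescence of non-degraded STAT6 read 0.5 h after Nano-GLO addition, following 4-24 h compound exposure at 37° C. Cells were HeLa clone 4.14 expressing LgBiT with a CRISPR HiBiT tag on endogenous STAT6; 50 μM terfenadine set full degradation.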

STAT6, sequence (P42226 whole entry): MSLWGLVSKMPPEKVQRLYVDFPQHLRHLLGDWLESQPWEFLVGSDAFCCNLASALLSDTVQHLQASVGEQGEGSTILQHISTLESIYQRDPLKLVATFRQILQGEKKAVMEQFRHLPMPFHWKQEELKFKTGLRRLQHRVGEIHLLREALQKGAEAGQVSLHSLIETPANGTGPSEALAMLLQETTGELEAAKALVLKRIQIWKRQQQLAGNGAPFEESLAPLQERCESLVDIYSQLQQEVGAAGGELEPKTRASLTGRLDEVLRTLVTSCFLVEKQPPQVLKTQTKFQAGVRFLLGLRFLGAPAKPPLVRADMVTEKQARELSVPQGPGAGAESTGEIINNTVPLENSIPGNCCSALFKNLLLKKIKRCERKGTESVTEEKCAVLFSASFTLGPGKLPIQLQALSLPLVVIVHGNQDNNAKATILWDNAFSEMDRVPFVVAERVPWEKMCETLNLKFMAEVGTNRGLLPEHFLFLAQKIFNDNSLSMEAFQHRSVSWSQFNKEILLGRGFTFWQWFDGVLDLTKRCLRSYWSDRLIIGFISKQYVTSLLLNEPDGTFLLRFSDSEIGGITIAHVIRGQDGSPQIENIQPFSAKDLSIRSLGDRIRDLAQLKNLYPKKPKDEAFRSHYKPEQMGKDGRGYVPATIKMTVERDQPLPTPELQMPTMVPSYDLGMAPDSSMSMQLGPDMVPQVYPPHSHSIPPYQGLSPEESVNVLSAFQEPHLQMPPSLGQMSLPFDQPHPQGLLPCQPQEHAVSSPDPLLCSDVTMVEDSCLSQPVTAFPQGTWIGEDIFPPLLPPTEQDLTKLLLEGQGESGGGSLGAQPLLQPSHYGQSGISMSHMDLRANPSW

EC50 (eotaxin-3 release) [nM]	DC50 (STAT6) [nM]	Emax (STAT6; read-out: STAT6 degradation Emax (%)) [%]	Compound
14.7	4.1		C[C@H]1CN(Cc2ccc3c(c2)C(C)(C)C(=O)N3C2CCC(=O)NC2=O)CCN1CC1CCN(C(=O)c2ccc(C3CCN([C@@H](C)c4cc5c(-c6ccc(N)nc6)ccnc5n4C)CC3)cc2)CC1 (stereo partly drawn) [Example 3r2, 3-(5-(((S)-4-((1-(4-(1-((S)-1-(4-(6-aminopyridin-3-yl)-1-methyl-1H-pyrrolo[2,3-b]pyridin-2-yl)ethyl)piperidin-4-yl)benzoyl)piperidin-4-yl)methyl)-3-methylpiperazin-1-yl)methyl)-3,3-dimethyl-2-oxoindolin-1-yl)piperidine-2,6-dione]
4	0.7		C[C@H]1CN(Cc2ccc3c(c2)oc(=O)n3C2CCC(=O)NC2=O)CCN1CC1CCN(C(=O)c2ccc(C3CCN([C@@H](C)c4cc5c(-c6ccc(N)nc6)ccnc5n4C)CC3)cc2)CC1 (stereo partly drawn) [Example 3n6, 3-(6-(((S)-4-((1-(4-(1-((S)-1-(4-(6-aminopyridin-3-yl)-1-methyl-1H-pyrrolo[2,3-b]pyridin-2-yl)ethyl)piperidin-4-yl)benzoyl)piperidin-4-yl)methyl)-3-methylpiperazin-1-yl)methyl)-2-oxobenzo[d]oxazol-3 (2H)-yl)piperidine-2,6-dione]
14.4	0.8		COCc1nc2cc(-c3ccnc4c3cc(CN3CCC(c5ccc(C(=O)N6CCC(CN7CCN(Cc8ccc9c(c8)n(C)c(=O)n9C8CCC(=O)NC8=O)CC7)CC6)cc5)CC3)n4C)ccc2[nH]1 (stereo not drawn) [Example 3e3, 3-(5-((4-((1-(4-(1-((4-(2-(methoxymethyl)-1H-benzo[d]imidazol-5-yl)-1-methyl-1H-pyrrolo[2,3-b]pyridin-2-yl)methyl)piperidin-4-yl)benzoyl)piperidin-4-yl)methyl)piperazin-1-yl)methyl)-3-methyl-2-oxo-2,3-dihydro-1H-benzo[d]imidazol-1-yl)piperidine-2,6-dione]
135		70 to 80	Cn1c(CN2CCC(c3ccc(C(=O)N4CCC(CN5CCN(Cc6cc7c(cc6F)n(C6CCC(=O)NC6=O)c(=O)n7C)CC5)CC4)cc3)CC2)cc2c(-c3ccc(N)nc3)ccnc21 (stereo not drawn) [Example 3e15, 3-(5-((4-((1-(4-(1-((4-(6-aminopyridin-3-yl)-1-methyl-1H-pyrrolo[2,3-b]pyridin-2-yl)methyl)piperidin-4-yl)benzoyl)piperidin-4-yl)methyl)piperazin-1-yl)methyl)-6-fluoro-3-methyl-2-oxo-2,3-dihydro-1H-benzo[d]imidazol-1-yl)piperidine-2,6-dione]
3.4	1.9		CNc1ccc(-c2ccnc3c2cc([C@H](C)N2CCC(c4ccc(C(=O)N5CCC(CN6CCN(Cc7ccc8c(c7)n(C7CC7)c(=O)n8C7CCC(=O)NC7=O)C[C@@H]6C)CC5)cc4)CC2)n3C)cn1 (stereo partly drawn) [Example 3h25, 3-(3-cyclopropyl-5-(((S)-3-methyl-4-((1-(4-(1-((S)-1-(1-methyl-4-(6-(methylamino)pyridin-3-yl)-1H-pyrrolo[2,3-b]pyridin-2-yl)ethyl)piperidin-4-yl)benzoyl)piperidin-4-yl)methyl)piperazin-1-yl)methyl)-2-oxo-2,3-dihydro-1H-benzo[d]imidazol-1-yl)piperidine-2,6-dione]
2.8	0.3		CNc1ccc(-c2ccnc3c2cc([C@H](C)N2CC=C(c4c(C)cc(C(=O)N(C)c5ccc(C6CCN(Cc7ccc8c(c7)C7(CC7)C(=O)N8C7CCC(=O)NC7=O)CC6)cc5)cc4F)CC2)n3C)cn1 (stereo partly drawn) [Example 3h11, N-(4-(1-((1′-(2,6-dioxopiperidin-3-yl)-2′-oxospiro[cyclopropane-1,3′-indolin]-5′-yl)methyl)piperidin-4-yl)phenyl)-3-fluoro-N,5-dimethyl-4-(1-((S)-1-(1-methyl-4-(6-(methylamino)pyridin-3-yl)-1H-pyrrolo[2,3-b]pyridin-2-yl)ethyl)-1,2,3,6-tetrahydropyridin-4-yl)benzamide]
0.8	0.2		COc1nc(N)ccc1-c1ccnc2c1cc([C@H](C)N1CCC(c3ccc(C(=O)N4CCC(CN5CCN(Cc6ccc7c(c6)n(C)c(=O)n7C6CCC(=O)NC6=O)C[C@@H]5C)CC4)cc3)CC1)n2C (stereo partly drawn) [Example 3e41, 3-(5-(((S)-4-((1-(4-(1-((S)-1-(4-(6-amino-2-methoxypyridin-3-yl)-1-methyl-1H-pyrrolo[2,3-b]pyridin-2-yl)ethyl)piperidin-4-yl)benzoyl)piperidin-4-yl)methyl)-3-methylpiperazin-1-yl)methyl)-3-methyl-2-oxo-2,3-dihydro-1H-benzo[d]imidazol-1-yl)piperidine-2,6-dione]
1.3	0.4		C[C@H]1CN(Cc2ccc3c(c2)n(C)c(=O)n3C2CCC(=O)NC2=O)CCN1CC1CCN(C(=O)c2ccc(C3CCN([C@@H](C)c4cc5c(-c6ccc(N)nc6)ccnc5n4C)CC3)cc2)CC1 (stereo partly drawn) [Example 3e16, 3-(5-(((S)-4-((1-(4-(1-((S)-1-(4-(6-aminopyridin-3-yl)-1-methyl-1H-pyrrolo[2,3-b]pyridin-2-yl)ethyl)piperidin-4-yl)benzoyl)piperidin-4-yl)methyl)-3-methylpiperazin-1-yl)methyl)-3-methyl-2-oxo-2,3-dihydro-1H-benzo[d]imidazol-1-yl)piperidine-2,6-dione]
17	0.8		CN(C(=O)c1ccc(C2CCN(Cc3cc4c(-c5ccc(N)nc5)ccnc4n3C)CC2)cc1)c1ccc(C2CCN(Cc3ccc4c(c3)n(C)c(=O)n4C3CCC(=O)NC3=O)CC2(F)F)cc1 (stereo not drawn) [Example 3p2, 4-(1-((4-(6-aminopyridin-3-yl)-1-methyl-1H-pyrrolo[2,3-b]pyridin-2-yl)methyl)piperidin-4-yl)-N-(4-(1-((1-(2,6-dioxopiperidin-3-yl)-3-methyl-2-oxo-2,3-dihydro-1H-benzo[d]imidazol-5-yl)methyl)-3,3-difluoropiperidin-4-yl)phenyl)-N-methylbenzamide]
8.8	7		CNc1ccc(-c2ccnc3c2cc([C@H](C)N2CC=C(c4c(C)cc(C(=O)N5CCC(CN6CCN(Cc7ccc8c(c7)C7(CCC7)C(=O)N8C7CCC(=O)NC7=O)C[C@@H]6C)CC5)cc4F)CC2)n3C)cn1 (stereo partly drawn) [Example 3h47, 3-(5′-(((S)-4-((1-(3-fluoro-5-methyl-4-(1-((S)-1-(1-methyl-4-(6-(methylamino)pyridin-3-yl)-1H-pyrrolo[2,3-b]pyridin-2-yl)ethyl)-1,2,3,6-tetrahydropyridin-4-yl)benzoyl)piperidin-4-yl)methyl)-3-methylpiperazin-1-yl)methyl)-2′-oxospiro[cyclobutane-1,3′-indolin]-1′-yl)piperidine-2,6-dione]
4.9	0.8		C[C@H]1CN(Cc2cc3c(cc2F)n([C@H]2CCC(=O)NC2=O)c(=O)n3C2CC2)CCN1CC1CCN(C(=O)c2ccc(C3CCN([C@@H](C)c4cc5c(-c6ccc(N)nc6)ccnc5n4C)CC3)cc2)CC1 (single isomer, unassigned) [Example 3e62]
5.5	1.4		C[C@@H]1CN(Cc2ccc3c(c2)n(C)c(=O)n3C2CCC(=O)NC2=O)C[C@H](C)N1CC1CCN(C(=O)c2ccc(C3CCN([C@@H](C)c4cc5c(-c6ccc(N)nc6)ccnc5n4C)CC3)cc2)CC1 (stereo partly drawn) [Example 3e18, 3-(5-((4-((1-(4-(1-((S)-1-(4-(6-aminopyridin-3-yl)-1-methyl-1H-pyrrolo[2,3-b]pyridin-2-yl)ethyl)-piperidin-4-yl)benzoyl)piperidin-4-yl)methyl)-3,5-cis-dimethylpiperazin-1-yl)methyl)-3-methyl-2-oxo-2,3-dihydro-1H-benzo[d]imidazol-1-yl)piperidine-2,6-dione]
22.4	2.9		C[C@H]1CN(Cc2ccc3c(c2)C(C)(C)C(=O)N3[C@@H]2CCC(=O)NC2=O)CCN1CC1CCN(C(=O)c2ccc(C3CCN([C@@H](C)c4cc5c(-c6ccc(N)nc6)ccnc5n4C)CC3)cc2)CC1 [Example 3h32, (R)-3-(5-(((S)-4-((1-(4-(1-((S)-1-(4-(6-aminopyridin-3-yl)-1-methyl-1H-pyrrolo[2,3-b]pyridin-2-yl)ethyl)piperidin-4-yl)benzoyl)piperidin-4-yl)methyl)-3-methylpiperazin-1-yl)methyl)-3,3-dimethyl-2-oxoindolin-1-yl)piperidine-2,6-dione]
2.3	0.4		C[C@@H](c1cc2c(-c3ccc(N)nc3)ccnc2n1C)N1CCC(c2ccc(C(=O)N3CCC(CN4[C@@H](C)CN(Cc5ccc6c(c5)n(C)c(=O)n6C5CCC(=O)NC5=O)C[C@@H]4C)CC3)cc2)CC1 (stereo partly drawn) [Example 3e29, 3-(5-(((3S,5S)-4-((1-(4-(1-((S)-1-(4-(6-aminopyridin-3-yl)-1-methyl-1H-pyrrolo [2,3-b]pyridin-2-yl)ethyl)piperidin-4-yl)benzoyl)piperidin-4-yl)methyl)-3,5-dimethylpiperazin-1l-yl)methyl)-3-methyl-2-oxo-2,3-dihydro-1H-benzo[d]imidazol-1-yl)piperidine-2,6-dione]
1.9	0.8		C[C@H]1CN(Cc2cc3c(cc2F)n(C2CCC(=O)NC2=O)c(=O)n3C2CC2)CCN1CC1CCN(C(=O)c2ccc(C3CCN([C@@H](C)c4cc5c(-c6ccc(N)nc6)ccnc5n4C)CC3)cc2)CC1 (stereo partly drawn) [Example 3e58, 3-(5-(((S)-4-((1-(4-(1-((S)-1-(4-(6-aminopyridin-3-yl)-1-methyl-1H-pyrrolo[2,3-b]pyridin-2-yl)ethyl)piperidin-4-yl)benzoyl)piperidin-4-yl)methyl)-3-methylpiperazin-1-yl)methyl)-3-cyclopropyl-6-fluoro-2-oxo-2,3-dihydro-1H-benzo[d]imidazol-1-yl)piperidine-2,6-dione]

Source: US20250325677A1, “STAT6 DEGRADERS” (Gilead Sciences, Inc., priority 2024, published 2025)
